From patent US5236955A, “Anti-fungal agent” (Washington University, priority 1992, dated 1993) come the findings set out here.

One test deals with T1, S. cerevisiae NMT (Saccharomyces cerevisiae, UniProt P14743).
T1 construct: made in house; host or cells: E. coli
Put plainly: In vitro discontinuous NMT assay. The class given is biochemical. To be noted: 40 μM fatty acid, HIV-1 Pr55gag octapeptide. The protocol: (§1) Details of the single point, discontinuous, in vitro NMT assay are described in Examples, below. A tritiated octapeptide derived from residues 2-9 of […] HIV-I Pr55^gag (GARA[^3 H]SVLS-NH2) was used in all assays. The amount of analogpeptide produced is expressed as a percentage of myristoylpeptide generated in a control incubation. All assays were performed in triplicate. The mean ±1 standard deviation is shown. Under the assay conditions employed, the amount of myristoylpeptide generated by purified E. coli-derived S. cerevisiae NMT ranged from 5×10^5 to 2×10^6 pmol/mg enzyme/min while the amount of myristolypeptide produced by purified E. coli-derived, C. albicans NMT ranged from 4×10^5 to 1.5×10^6 pmol/mg enzyme/mni.
(§2) In vitro discontinuous NMT assay--This assay was carried out by conventional procedures as described by Duronio et al., Methods: A Companion to Methods in Enzymol. 1, 253-263 (1990); Kishore et al., J. Biol. Chem. 266, 8835-8853 (1991). Briefly, a single point assay was performed by first converting myristic acid or a fatty acid analog (final concentration=40 μM) to its CoA thioester using Pseudomonas acylCoA synthetase (EC 6.2.1.3, Sigma Chemical Co.). Following a 25 min incubation at 30° C., purified E. coli derived S. cerevisiae or C. albicans NMT [Rudnick et al., Ibid. 265, 13370-13378 (1990); Wiegand et al., J. Biol. Chem. 267, 8591-8598 (1992)], final concentration=0.1 μg/ml, was added to the reaction mixture together with a tritiated peptide substrate derived from residues 2-9 of the HIV-1 Pr55^gag (Gly-Ala-Arg-[^3 H]Ala-Ser-Val-Leu-Ser-NH2) [Kishore et al., supra (1991); specific activity=1.2 Ci/mmol; final concentration=23 μM]. After an additional 10 min incubation at 30° C., the enzymatically generated, radiolabeled acylpeptide was purified by reverse phase HPLC and quantitated using an in-line scintillation counter [Kishore et al., supra, (1991)]. The amount of analogpeptide formed was expressed as a percentage of the amount of myristoylpeptide formed in a parallel reference assay. All assays were performed in duplicate or triplicate.
(§3) In vitro studies of purified S. cerevisiae and C. albicans NMT reveal differences in the kinetic properties of oxatetradecanoic and oxatridecanoic acid analogs--To begin to understand the mechanism which underlies the fungicidal activities of some but not all of the oxygen containing fatty acid analogs, the relative activities of the sixteen oxatri-, oxatetradecanoic acids and dioxatetradecanoic acids were examined in an in vitro assay. The two step assay measures NMT-dependent transfer of the acyl chain from an enzymatically generated acylCoA to a radiolabeled peptide substrate. […]

The target in the next test is T2, C. albicans NMT (Candida albicans, UniProt P30418).
T2 construct: made in house; host or cells: E. coli
T2 sequence (P30418 whole entry): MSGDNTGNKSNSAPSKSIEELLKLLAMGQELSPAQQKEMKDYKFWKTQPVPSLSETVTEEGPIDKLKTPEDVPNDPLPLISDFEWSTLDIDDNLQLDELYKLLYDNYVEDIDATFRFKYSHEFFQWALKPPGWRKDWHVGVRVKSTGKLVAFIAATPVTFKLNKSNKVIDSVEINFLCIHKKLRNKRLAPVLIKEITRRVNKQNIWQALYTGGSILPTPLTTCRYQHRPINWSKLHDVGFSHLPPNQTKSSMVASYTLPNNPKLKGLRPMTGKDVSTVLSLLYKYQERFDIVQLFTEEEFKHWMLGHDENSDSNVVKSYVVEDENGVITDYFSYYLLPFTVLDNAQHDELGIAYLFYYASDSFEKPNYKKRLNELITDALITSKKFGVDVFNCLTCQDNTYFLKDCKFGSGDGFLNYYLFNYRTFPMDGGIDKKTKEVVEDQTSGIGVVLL
Put plainly: In vitro discontinuous NMT assay. The class given is biochemical. As to conditions: 40 μM fatty acid, HIV-1 Pr55gag octapeptide. The protocol: as §1, §2, §3

For test [1], the system named is C. neoformans. Put plainly: Viability of C. neoformans (viable cells relative to EtOH control culture). The class given is cell-based, Cryptococcus neoformans. To be noted: for fungicidal / fungistatic effect on C. neoformans: screening assay; for log reduction at 300 µM: relative to 0.1% EtOH control, read-out: decrease in viable cells (converted); for attenuation of fungicidal activity on shortening by one methylene: versus corresponding oxatetradecanoic acid, 300 μM. How it is done: (§4) Panel A, survey of the effects of several oxatetradecanoic acids on the growth of C. neoformans. A culture of C. neoformans was grown at 30° C. in SAB media to midlog phase (A600 ~0.5). A single dose of fatty acid was then added to subcultures (final concentration=300 μM). EtOH(0.1%) was used as a negative control. Amphotericin B (AmB) was added (final concentraton=55 μM) as a positive control. Aliquots were withdrawn from the subcultures 0, 0.5, 2, 4, 7, 21, and 24 h after these additions and then absorbance at 600 nm was measured. All assays were done in duplicate or triplicate. A representative test is shown. Panel B, survey of the effects of oxatetradecanoic acids, dioxatetradecanoic acids and oxatridecanoic acids on the viability of C. neoformans. Fatty acid analog was added to the cultures as in Panel A. Aliquots were withdrawn 0.5, 2, 4, 7 or 8, and 24 h later and plated on SAB-agar at various dilutions to determine the number of viable organisms/ml culture. All assays were done in duplicate. Data from a representative test are expressed as the ratio of viable cells in treated cultures relative to a control culture that received 0.1% EtOH. A positive control culture received a single dose of amphotericin B (55 μM); Panel C, dose-dependent reduction in the viability of C. neoformans after addition of 4-oxatetradecanoic acid (O4) to cultures during log-phase growth at 30° C. in SAB. A single dose of the analog was given at T=0 h in the amount indicated and aliquots of the culture were withdrawn at various times to determine the number of viable cells. All assays were done in triplicate. A representative test is shown.
(§5) Saccharomyces cerevisiae strain YM2061 (MATa ura3-52 his3Δ200 ade2-101 lys2-801 met LEU2::pRY181 can1; Flick and Johnston, Mol. Cell. Biol. 10, 4757-4769 (1990), Candida albicans strain B311 (obtained from the American Type Tissue Culture, Rockville, Md.), or Cryptococcus neoformans strain L210425 (a clinical isolate that is part of the permanent culture collection of the Mycology Laboratory, Barnes Hospital, St. Louis, Mo.) were grown overnight at 30 C. The S. cerevisiae strain was incubated in YPD medium (1% bacto-yeast extract, Gibco, Long Island, N.Y.), 2% bacto-peptone (Gibco), 2% dextrose). The C. albicans and C. neoformans strains were grown in Sabouraud's media (SAB; 2% (w/v) dextrose, 1% bacto-peptone). The following morning the cultures were diluted into fresh medium to the desired density at 600 nm (early log phase), and subsequently incubated in a rotary shaker at 30° C. until an A600 =0.5 (mid log phase) was achieved. The culture was then divided into 10 ml aliquots. A single 10 μl aliquot of a stock solution of fatty acid analog (prepared in various concentrations using absolute ethanol) was added to the culture so that the final concentration of the compound was 100-500 μM (T=0). Ten microliters of ethanol alone was added to one 10 ml culture which served as the negative control. Amphotericin B (AmB; in the form of Fungizone, Squibb) was added (final concentration=55 μM) to another culture which served as the positive control. At T=0 and 0.5-24 h after addition of fatty acid analog to the subcultures, an aliquot was removed for determining the density of the subculture at 600 nm. Cell viability was determined at each of these time points by (i) serially diluting the aliquot in 0.15M NaCl and counting cell number in a hemocytometer and (ii) plating 2-3 of the dilutions in triplicate onto plates of SAB/agar (C. albicans and C. neoformans) or YPD/agar (S. cerevisiae). These plates were subsequently incubated at 30° C. for 24-48 hr to allow for the growth of colonies. The data were expressed as the ratio of viable cells/ml in the fatty acid analog treated subculture to the number of viable cells/ml in the negative (ethanol) control culture.

The subject of test [2] is C. neoformans. Put plainly: Growth of C. neoformans cultures (absorbance at 600 nm). The class given is cell-based, Cryptococcus neoformans. The protocol: as §4
as §5, with “Amphotericin B (AmB; in the form of Fungizone, Squibb) was added (final concentration=55 μM) to another culture which served as the positive control. At T=0 and 0.5-24 h after addition of fatty acid analog to the subcultures, an aliquot was removed for determining the density of the subculture at 600 nm.” left out, “These plates were subsequently incubated at 30° C. for 24-48 hr to allow for the growth of colonies.” left out, “culture. […]” for “culture.”

A further test concerns S. cerevisiae. The test is described as follows: Viability of S. cerevisiae. The class given is cell-based. To be noted: Saccharomyces cerevisiae. How it is done:
(§6) Oxatetradecanoic acids were added (final concentraton=25-500 μM) as a single dose to log phase cultures of C. alibcans grown in SAB at 30° C. (Panels A and B) and to log phase cultures of S. cerevisiae grown in YPD at 30° C. (Panels C and D). The results were compared to the number of viable organisms present in cultures treated with 0.1% EtOH alone. […] A single does of alphotericin B (final concentration=55 μM) was added to parallel cultures which served as positive controls. Assays were done in duplicate. Representative tests are shown.
as §5

The test system of another test is C. albicans. The test is described as follows: Viability of C. albicans. The class given is cell-based. To be noted: Candida albicans. The protocol:
as §6, §5

Where [3] appears, read: Cryptococcus neoformans, 300 μM single dose.

Molecules are shown by their SMILES.

T1 sequence (P14743 whole entry): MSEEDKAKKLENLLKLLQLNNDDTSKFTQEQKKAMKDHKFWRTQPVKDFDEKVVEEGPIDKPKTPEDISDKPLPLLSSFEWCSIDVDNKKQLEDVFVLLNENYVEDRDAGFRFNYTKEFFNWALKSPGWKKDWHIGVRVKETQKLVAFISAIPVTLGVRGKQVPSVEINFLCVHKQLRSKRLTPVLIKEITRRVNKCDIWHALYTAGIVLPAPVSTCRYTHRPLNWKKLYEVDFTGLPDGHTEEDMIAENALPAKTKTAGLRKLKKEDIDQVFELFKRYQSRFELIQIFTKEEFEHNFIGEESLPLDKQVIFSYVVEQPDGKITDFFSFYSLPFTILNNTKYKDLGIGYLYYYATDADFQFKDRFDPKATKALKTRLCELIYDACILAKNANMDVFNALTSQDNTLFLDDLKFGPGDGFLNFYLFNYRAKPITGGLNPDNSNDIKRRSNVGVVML

For `CCCCCCCCCCCOCC(=O)SCCNC(=O)CCNC(=O)[C@H](O)C(C)(C)COP(=O)(O)OP(=O)(O)OC[C@H]1O[C@@H](n2cnc3c(N)ncnc32)[C@H](O)[C@@H]1OP(=O)(O)O` [3-oxatetradecanoylCoA], the “activity of analogCoA relative to myristoylCoA” value on S. cerevisiae NMT and at C. albicans NMT was “equivalent to myristate” throughout.

Regarding `COCCCCCCCCOCCC(=O)O` [4,13 dioxatetradecanoic acid, 4,13-Dioxatetradecanoic acid], the “fungicidal / fungistatic effect on C. neoformans” value (shortened to “fungicidal / fungistatic effect”) in the test on C. neoformans [1] (300 μM single dose) was “did not convert O13 to an active analog”.

Take `CCCCCCCCCCOCCC(=O)SCCNC(=O)CCNC(=O)[C@H](O)C(C)(C)COP(=O)(O)OP(=O)(O)OC[C@H]1O[C@@H](n2cnc3c(N)ncnc32)[C@H](O)[C@@H]1OP(=O)(O)O` [4-oxatetradecanoylCoA]: the “activity of analogCoA relative to myristoylCoA” value on S. cerevisiae NMT and on C. albicans NMT was -3 fold in each case.

Take `CCCCCCCCCOCCC(=O)O` [4-oxatridecanoic acid, 4-Oxatridecanoic acid]: in the test on C. neoformans [1] (300 μM single dose), the “time needed to produce the decrease in viable cells” value is 6 to 7 h. Besides, in the test with C. neoformans [1] (setting [3]), the log reduction at 300 µM is 3. The “attenuation of fungicidal activity on shortening by one methylene” value in the test with C. neoformans [1] amounted to 10 fold.

For the compound `COCCCCCCCOCCCC(=O)O` [5,13 dioxatetradecanoic acid, 5,13-Dioxatetradecanoic acid], in the test with C. neoformans [1] (300 μM single dose), the “fungicidal / fungistatic effect” value is listed as “did not convert O13 to an active analog”.

`CCCCCCCCOCCCC(=O)O` [5-oxatridecanoic acid, 5-Oxatridecanoic acid]: the “fungicidal / fungistatic effect” value in the test with C. neoformans [1] (300 μM single dose) is recorded as “not active”. Further, the “attenuation of fungicidal activity on shortening by one methylene” value with C. neoformans [1] is 10 fold.

For `C[C@@H]1[C@H](O)[C@@H](C)/C=C/C=C/C=C/C=C/C=C/C=C/C=C/[C@H](O[C@@H]2O[C@H](C)[C@@H](O)[C@H](N)[C@@H]2O)C[C@@H]2O[C@](O)(C[C@@H](O)C[C@@H](O)[C@H](O)CC[C@@H](O)C[C@@H](O)CC(=O)O[C@H]1C)C[C@H](O)[C@H]2C(=O)O` [Amphotericin B, reference compound], the log reduction at 55 µM with C. neoformans [1] (Cryptococcus neoformans, read-out: reduction in viable cell number) is 6. Further, in the test on C. neoformans [2] (55 μM, positive control), the “effect on growth of C. neoformans, as determined by optical density” value is recorded as “growth arrest”.

With `CCCCCCCCCOCCCC(=O)O` [O5, 5-oxatetradecanoic acid], in the test with C. neoformans [1] (300 μM single dose), the “fungicidal / fungistatic effect” value is recorded as “fungicidal”. The log reduction at 300 µM was 3 with C. neoformans [1] (setting [3]); less than 0.699 with S. cerevisiae (300 μM, 2 hr after addition, read-out: reductions in the number of viable S. cerevisiae); less than 0.699 with C. albicans (300 μM, 2 hr after addition, read-out: reductions in the number of viable C. albicans). The log reduction at 500 µM lay in the range of 1 to 2 in the test with S. cerevisiae (500 μM, read-out: reduction in the number of viable organisms (S. cerevisiae)) and 1 to 2 with C. albicans (500 μM, read-out: reduction in the number of viable organisms (C. albicans)).

Take `CCCCCCCOCCCCCC(=O)O` [O7]: the “fungicidal / fungistatic effect” value in the test with C. neoformans [1] (300 μM single dose) is listed as “no measurable effect on the growth”.

As for `CCCCCCOCCCCCCC(=O)O` [O8], the “fungicidal / fungistatic effect” value in the test on C. neoformans [1] (300 μM single dose) is on record as “no measurable effect on the growth”.

Regarding `CCCCOCCCCCCCCC(=O)O` [O10], the “fungicidal / fungistatic effect” value with C. neoformans [1] (300 μM single dose) is “no measurable effect on the growth”.

Take `CCCOCCCCCCCCCC(=O)O` [O11, 11-Oxatetradecanoic acid]: the “fungicidal / fungistatic effect” value with C. neoformans [1] (300 μM single dose) was “no measurable effect on the growth”. Also, the “effect on growth of C. neoformans, as determined by optical density” value with C. neoformans [2] (single 300 μM dose, exponential phase, 30° C., SAB, up to 24 h) was “virtually no effect on growth”.

As to `CCOCCCCCCCCCCC(=O)O` [O12], in the test on C. neoformans [1] (300 μM single dose), the “fungicidal / fungistatic effect” value is on record as “no measurable effect on the growth”.
